CCCCCCCCCCCC(=O)O
Settings	solubility (mole fraction)
in 1-bromopropane, 280.6 K	0.0756
in 1-bromopropane, 283.8 K	0.0997
in 1-bromopropane, 287.8 K	0.15
in 1-bromopropane, 289.9 K	0.185
in 1-bromopropane, 293.1 K	0.239
in 1-bromopropane, 295.2 K	0.275
in 1-bromopropane, 298.8 K	0.34
in 1-bromopropane, 301.4 K	0.404
in 1-bromopropane, 304.3 K	0.473
in 1-bromopropane, 305.3 K	0.528
in 1-bromopropane, 307.3 K	0.573
in 1-bromopropane, 309.3 K	0.645
in 1-bromopropane, 310.5 K	0.709
in 1-bromopropane, 312.5 K	0.775
in 1-bromopropane, 313.8 K	0.859
in acetone, 286.6 K	0.0794
in acetone, 290.1 K	0.107
in acetone, 293.1 K	0.146
in acetone, 293.3 K	0.146
in acetone, 298 K	0.224
in acetone, 299.9 K	0.283
in acetone, 301.9 K	0.34
in acetone, 303.4 K	0.389
in acetone, 305.1 K	0.449
in acetone, 306.7 K	0.512
in acetone, 308.1 K	0.568
in acetone, 310.9 K	0.678
in acetone, 312 K	0.735
in acetone, 313 K	0.795
in acetone, 314.4 K	0.857
in acetone, 315.2 K	0.895
in isopropanol, 279.2 K	0.0797
in isopropanol, 282.7 K	0.104
in isopropanol, 285.9 K	0.13
in isopropanol, 289.1 K	0.164
in isopropanol, 293.1 K	0.22
in isopropanol, 297.1 K	0.283
in isopropanol, 301 K	0.361
in isopropanol, 303 K	0.409
in isopropanol, 304.4 K	0.458
in isopropanol, 306.1 K	0.513
in isopropanol, 308.1 K	0.568
in isopropanol, 309.8 K	0.648
in isopropanol, 311.2 K	0.712
in isopropanol, 312.6 K	0.777
in isopropanol, 314.1 K	0.842
in isopropanol, 314.9 K	0.896
in n-hexane, 279.9 K	0.0292
in n-hexane, 282.5 K	0.0408
in n-hexane, 283.6 K	0.0502
in n-hexane, 286.9 K	0.0736
in n-hexane, 289.7 K	0.108
in n-hexane, 291.7 K	0.134
in n-hexane, 293.9 K	0.171
in n-hexane, 296.4 K	0.223
in n-hexane, 297.5 K	0.252
in n-hexane, 300.1 K	0.322
in n-hexane, 301.8 K	0.38
in n-hexane, 303.8 K	0.442
in n-hexane, 305.9 K	0.519
in n-hexane, 308 K	0.593
in n-hexane, 311 K	0.711
in n-hexane, 312.5 K	0.777
in n-hexane, 314.2 K	0.858
in n-propanol, 287.1 K	0.13
in n-propanol, 289.6 K	0.153
in n-propanol, 292.8 K	0.192
in n-propanol, 295.1 K	0.225
in n-propanol, 297.9 K	0.275
in n-propanol, 299.9 K	0.318
in n-propanol, 301.5 K	0.353
in n-propanol, 303.5 K	0.406
in n-propanol, 304.7 K	0.44
in n-propanol, 306.5 K	0.509
in n-propanol, 307.4 K	0.541
in n-propanol, 308.7 K	0.597
in n-propanol, 309.9 K	0.644
in n-propanol, 310.7 K	0.69
in n-propanol, 312.1 K	0.749
in n-propanol, 313.4 K	0.818
in n-propanol, 314.2 K	0.873
in trichloroethylene, 282 K	0.144
in trichloroethylene, 283.1 K	0.157
in trichloroethylene, 284.6 K	0.171
in trichloroethylene, 288.4 K	0.216
in trichloroethylene, 291 K	0.258
in trichloroethylene, 293 K	0.295
in trichloroethylene, 296 K	0.337
in trichloroethylene, 298.2 K	0.389
in trichloroethylene, 301.2 K	0.441
in trichloroethylene, 303.3 K	0.516
in trichloroethylene, 306.7 K	0.591
in trichloroethylene, 308.6 K	0.666
in trichloroethylene, 310.5 K	0.725
in trichloroethylene, 312.5 K	0.806
in trichloroethylene, 313.5 K	0.855

From BigSolDB 2.1
